Measurements reported in US10988523B2, “Modified lipidated Relaxin B chain peptides and their therapeutic use” (Sanofi, priority 2018, dated 2021).
*1 amine or outer side, *2 acyl side, *3 side chain or, on linkers, in order; H or OH if unused. Where a SMILES comes first, the peptide text is derived from it. Side-chain parts run from the residue outwards. [ ]: non-standard residue; d: D form. The star is where a group is joined. X14 = CCCCCCCCCCCCCCC(=O)N[C@@H](CCC(=O)N[C@@H](CCC(=O)N[C@@H](CCC(=O)NCCCC[C@H](NC(=O)CCC(=O)NCCCOCCOCCOCCCNC(=O)CCC(=O)NCCCOCCOCCOCCCNC(=O)CCC(=O)NCCCOCCOCCOCCCN*)C(N)=O)C(=O)O)C(=O)O)C(=O)O; PEG12 = NCCOCCOCCOCCOCCOCCOCCOCCOCCOCCOCCOCCOCCC(=O)O; γGlu = O=C(O)[C@H](CCC(=O)[*:2])N[*:1]; Pentadecanoyl = CCCCCCCCCCCCCCC(=O)*; Stearoyl = CCCCCCCCCCCCCCCCCC(=O)*; αMeK = C[C@](N)(CCCCN)C(=O)O; Nle = CCCC[C@H](N)C(=O)O; AEEA = NCCOCCOCC(=O)O; Aib = CC(C)(N)C(=O)O

Molecular target: T1, RXFP1 (Homo sapiens, UniProt Q9HBX9)
T1 construct: OVCAR5 cells expressing endogenous RXFP1; endogenous in cells; host or cells: OVCAR5 cells
T1 sequence (Q9HBX9 1-757): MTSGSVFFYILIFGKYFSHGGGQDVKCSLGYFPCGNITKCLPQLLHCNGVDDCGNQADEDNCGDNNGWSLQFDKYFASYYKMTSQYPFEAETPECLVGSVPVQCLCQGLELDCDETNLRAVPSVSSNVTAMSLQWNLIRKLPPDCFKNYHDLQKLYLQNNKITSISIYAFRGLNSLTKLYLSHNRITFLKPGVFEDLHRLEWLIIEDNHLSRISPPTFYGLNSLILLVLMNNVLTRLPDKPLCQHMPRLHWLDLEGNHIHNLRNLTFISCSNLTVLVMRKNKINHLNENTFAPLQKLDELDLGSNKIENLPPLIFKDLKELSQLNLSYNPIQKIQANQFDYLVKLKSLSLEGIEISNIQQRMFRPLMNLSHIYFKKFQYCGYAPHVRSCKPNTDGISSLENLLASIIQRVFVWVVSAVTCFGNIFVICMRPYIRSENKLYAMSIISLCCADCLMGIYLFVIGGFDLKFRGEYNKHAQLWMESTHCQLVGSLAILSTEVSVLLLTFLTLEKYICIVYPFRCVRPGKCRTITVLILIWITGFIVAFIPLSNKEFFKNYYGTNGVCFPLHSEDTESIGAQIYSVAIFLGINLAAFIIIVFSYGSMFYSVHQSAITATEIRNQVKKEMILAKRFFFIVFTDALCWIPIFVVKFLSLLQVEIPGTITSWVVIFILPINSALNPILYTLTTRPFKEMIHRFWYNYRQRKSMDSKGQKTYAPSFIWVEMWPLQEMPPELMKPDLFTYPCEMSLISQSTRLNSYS
Assay: OVCAR5 cAMP assay (HTRF), RXFP1 agonist activity
Format: cell-based
Conditions: for Emax: OVCAR-5, maximal cAMP relative to H2-relaxin maximum (100%), read-out: EMax, OVCAR 5 cells (cAMP); for EC50: OVCAR5 cells, cAMP HTRF, read-out: EC50 (nM), OVCAR 5 cells (cAMP)
How it was run: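 OVCAR5 cells (endogenous RXFP1) pretreated 40 min at 37° C with 1 mM IBMX, then exposed to peptides in serum-free medium for 30 min at 37° C. Lysate cAMP read by HTRF; EC50 from variable-slope sigmoidal fit; Emax as % of H2-relaxin maximal cAMP in same run.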

Row | SMILES | Emax | EC50
1 | CCCCCCCCCCCCCCCCCC(=O)N[C@@H](CCC(=O)N[C@@H](CCC(=O)N[C@@H](CCC(=O)NCCOCCOCC(=O)NCCOCCOCC(=O)NCCCC[C@H](NC(=O)[C@H](CCCCN)NC(=O)[C@H](CCCNC(=N)N)NC(=O)C(C)(C)NC(=O)[C@H](CO)NC(=O)[C@H](Cc1c[nH]c2ccccc12)NC(=O)[C@@H](NC(=O)[C@H](CO)NC(=O)[C@H](CCCC)NC(=O)CNC(=O)[C@H](CCC(=O)O)NC(=O)C(C)(C)NC(=O)C(C)(C)NC(=O)[C@@H](NC(=O)[C@H](CCC(N)=O)NC(=O)[C@H](C)NC(=O)[C@H](CCCNC(=N)N)NC(=O)[C@@H](NC(=O)[C@H](CCCCN)NC(=O)[C@H](CCC(=O)O)NC(=O)[C@H](CCCNC(=N)N)NC(=O)CNC(=O)[C@H](CCC(=O)O)NC(=O)[C@H](CC(C)C)NC(C)=O)C(C)C)[C@@H](C)CC)[C@@H](C)O)C(N)=O)C(=O)O)C(=O)O)C(=O)O [compound 67] (Ac-LEGREKVRAQI[Aib][Aib]EG[Nle]STWS[Aib]RKK([AEEA-AEEA-γGlu-γGlu-γGlu-Stearoyl])-NH2) | 89% | –
2 | CCCCCCCCCCCCCCCCCC(=O)N[C@@H](CCC(=O)NCCOCCOCC(=O)NCCOCCOCC(=O)N[C@@H](CCC(=O)N[C@@H](CCC(=O)NCCCC[C@H](NC(=O)[C@H](CCCCN)NC(=O)[C@H](CCCNC(=N)N)NC(=O)C(C)(C)NC(=O)[C@H](CO)NC(=O)[C@H](Cc1c[nH]c2ccccc12)NC(=O)[C@@H](NC(=O)[C@H](CO)NC(=O)[C@H](CCCC)NC(=O)CNC(=O)[C@H](CCC(=O)O)NC(=O)C(C)(C)NC(=O)C(C)(C)NC(=O)[C@@H](NC(=O)[C@H](CCC(N)=O)NC(=O)[C@H](C)NC(=O)[C@H](CCCNC(=N)N)NC(=O)[C@@H](NC(=O)[C@H](CCCCN)NC(=O)[C@H](CCC(=O)O)NC(=O)[C@H](CCCNC(=N)N)NC(=O)CNC(=O)[C@H](CCC(=O)O)NC(=O)[C@H](CC(C)C)NC(C)=O)C(C)C)[C@@H](C)CC)[C@@H](C)O)C(N)=O)C(=O)O)C(=O)O)C(=O)O [compound 104] (Ac-LEGREKVRAQI[Aib][Aib]EG[Nle]STWS[Aib]RKK([γGlu-γGlu-AEEA-AEEA-γGlu-Stearoyl])-NH2) | 89% | 0.16 nM
3 | CCCCCCCCCCCCCCCCCC(=O)N[C@@H](CCC(=O)NCCCC[C@H](NC(=O)CCOCCOCCOCCOCCOCCOCCOCCOCCOCCOCCOCCOCCNC(=O)[C@H](CCCCN)NC(=O)[C@H](CCCCN)NC(=O)[C@H](CCCNC(=N)N)NC(=O)C(C)(C)NC(=O)[C@H](CO)NC(=O)[C@H](Cc1c[nH]c2ccccc12)NC(=O)[C@@H](NC(=O)[C@H](CO)NC(=O)[C@H](CCCC)NC(=O)CNC(=O)[C@H](CCC(=O)O)NC(=O)C(C)(C)NC(=O)C(C)(C)NC(=O)[C@@H](NC(=O)[C@H](CCC(N)=O)NC(=O)[C@H](C)NC(=O)[C@H](CCCNC(=N)N)NC(=O)[C@@H](NC(=O)[C@H](CCCCN)NC(=O)[C@H](CCC(=O)O)NC(=O)[C@H](CCCNC(=N)N)NC(=O)CNC(=O)[C@H](CCC(=O)O)NC(=O)[C@H](CC(C)C)NC(C)=O)C(C)C)[C@@H](C)CC)[C@@H](C)O)C(N)=O)C(=O)O [compound 22] (Ac-LEGREKVRAQI[Aib][Aib]EG[Nle]STWS[Aib]RKK[PEG12]K([γGlu-Stearoyl])-NH2) | 104% | –
4 | CCCCCCCCCCCCCCC(=O)N[C@@H](CCC(=O)N[C@@H](CCC(=O)N[C@@H](CCC(=O)N[C@@H](CCC(=O)NCCCC[C@H](NC(=O)COCCOCCNC(=O)COCCOCCNC(=O)COCCOCCNC(=O)COCCOCCNC(=O)[C@H](CCCCNC(C)=O)NC(=O)[C@H](C)NC(=O)[C@H](CCCNC(=N)N)NC(=O)[C@](C)(CCCCN)NC(=O)[C@H](CO)NC(=O)[C@H](Cc1ccccc1)NC(=O)[C@@H](NC(=O)[C@H](CO)NC(=O)[C@H](CCCC)NC(=O)CNC(=O)[C@H](CCC(=O)O)NC(=O)C(C)(C)NC(=O)C(C)(C)NC(=O)[C@@H](NC(=O)[C@H](CCCCNC(C)=O)NC(=O)[C@H](C)NC(=O)[C@H](CCCNC(=N)N)NC(=O)[C@@H](NC(=O)[C@H](CCCCN)NC(=O)[C@H](CCC(=O)O)NC(=O)[C@H](CCCNC(=N)N)NC(=O)CNC(=O)[C@H](CCC(=O)O)NC(=O)[C@H](CC(C)C)NC(C)=O)C(C)C)[C@@H](C)CC)[C@@H](C)O)C(N)=O)C(=O)O)C(=O)O)C(=O)O)C(=O)O [compound 167] (Ac-LEGREKVRAK(Ac)I[Aib][Aib]EG[Nle]STFS[αMeK]RAK(Ac)[AEEA][AEEA][AEEA][AEEA]K([γGlu-γGlu-γGlu-γGlu-Pentadecanoyl])-NH2) | 93% | 0.05 nM
5 | CCCCCCCCCCCCCCCCCC(=O)N[C@@H](CCC(=O)N[C@@H](CCC(=O)N[C@@H](CCC(=O)NCCOCCOCC(=O)NCCOCCOCC(=O)NCCCC[C@H](NC(=O)[C@H](CCCCN)NC(=O)[C@H](CCCCN)NC(=O)[C@H](CCCNC(=N)N)NC(=O)C(C)(C)NC(=O)[C@H](CO)NC(=O)[C@H](Cc1c[nH]c2ccccc12)NC(=O)[C@@H](NC(=O)[C@H](CO)NC(=O)[C@H](CCCC)NC(=O)CNC(=O)[C@H](CCC(=O)O)NC(=O)C(C)(C)NC(=O)C(C)(C)NC(=O)[C@@H](NC(=O)[C@H](CCC(N)=O)NC(=O)[C@H](C)NC(=O)[C@H](CCCNC(=N)N)NC(=O)[C@@H](NC(=O)[C@H](CCCCN)NC(=O)[C@H](CCC(=O)O)NC(=O)[C@H](CCCNC(=N)N)NC(=O)CNC(=O)[C@H](CCC(=O)O)NC(=O)[C@H](CC(C)C)NC(C)=O)C(C)C)[C@@H](C)CC)[C@@H](C)O)C(N)=O)C(=O)O)C(=O)O)C(=O)O [compound 71] (Ac-LEGREKVRAQI[Aib][Aib]EG[Nle]STWS[Aib]RKKK([AEEA-AEEA-γGlu-γGlu-γGlu-Stearoyl])-NH2) | 87% | –

The remaining lines, values ahead:

Row | Emax | EC50 | SMILES
6 | 100% | – | CCCCCCCCCCCCCCC(=O)N[C@@H](CCC(=O)N[C@@H](CCC(=O)N[C@@H](CCC(=O)NCCCC[C@H](NC(=O)CCC(=O)NCCCOCCOCCOCCCNC(=O)CCC(=O)NCCCOCCOCCOCCCNC(=O)CCC(=O)NCCCOCCOCCOCCCNC(=O)[C@H](CCCCNC(C)=O)NC(=O)[C@H](C)NC(=O)[C@H](CCCNC(=N)N)NC(=O)[C@](C)(CCCCN)NC(=O)[C@H](CO)NC(=O)[C@H](Cc1ccccc1)NC(=O)[C@@H](NC(=O)[C@H](CO)NC(=O)[C@H](CCCC)NC(=O)CNC(=O)[C@H](CCC(=O)O)NC(=O)C(C)(C)NC(=O)C(C)(C)NC(=O)[C@@H](NC(=O)[C@H](CCCCNC(C)=O)NC(=O)[C@H](C)NC(=O)[C@H](CCCNC(=N)N)NC(=O)[C@@H](NC(=O)[C@H](CCCCN)NC(=O)[C@H](CCC(=O)O)NC(=O)[C@H](CCCNC(=N)N)NC(=O)CNC(=O)[C@H](CCC(=O)O)NC(=O)[C@H](CC(C)C)NC(C)=O)C(C)C)[C@@H](C)CC)[C@@H](C)O)C(N)=O)C(=O)O)C(=O)O)C(=O)O [compound 188] (Ac-LEGREKVRAK(Ac)I[Aib][Aib]EG[Nle]STFS[αMeK]RAK(Ac)-X14)
7 | 93% | 0.17 nM | CCCCCCCCCCCCCCCCCC(=O)N[C@@H](CCC(=O)N[C@@H](CCC(=O)N[C@@H](CCC(=O)NCCOCCOCC(=O)NCCOCCOCC(=O)NCCCC[C@H](NC(=O)[C@H](CCCCN)NC(=O)[C@H](CCCCNC(C)=O)NC(=O)[C@H](CCCNC(=N)N)NC(=O)C(C)(C)NC(=O)[C@H](CO)NC(=O)[C@H](Cc1c[nH]c2ccccc12)NC(=O)[C@@H](NC(=O)[C@H](CO)NC(=O)[C@H](CCCC)NC(=O)CNC(=O)[C@H](CCC(=O)O)NC(=O)C(C)(C)NC(=O)C(C)(C)NC(=O)[C@@H](NC(=O)[C@H](CCCCNC(C)=O)NC(=O)[C@H](C)NC(=O)[C@H](CCCNC(=N)N)NC(=O)[C@@H](NC(=O)[C@H](CCCCN)NC(=O)[C@H](CCC(=O)O)NC(=O)[C@H](CCCNC(=N)N)NC(=O)CNC(=O)[C@H](CCC(=O)O)NC(=O)[C@H](CC(C)C)NC(C)=O)C(C)C)[C@@H](C)CC)[C@@H](C)O)C(N)=O)C(=O)O)C(=O)O)C(=O)O [compound 72] (Ac-LEGREKVRAK(Ac)I[Aib][Aib]EG[Nle]STWS[Aib]RK(Ac)KK([AEEA-AEEA-γGlu-γGlu-γGlu-Stearoyl])-NH2)
8 | 91% | 0.06 nM | CCCCCCCCCCCCCCC(=O)N[C@@H](CCC(=O)N[C@@H](CCC(=O)NCCCC[C@H](NC(=O)CC[C@H](NC(=O)CC[C@H](NC(=O)COCCOCCNC(=O)COCCOCCNC(=O)COCCOCCNC(=O)COCCOCCNC(=O)[C@H](CCCCNC(C)=O)NC(=O)[C@H](C)NC(=O)[C@H](CCCNC(=N)N)NC(=O)[C@](C)(CCCCN)NC(=O)[C@H](CO)NC(=O)[C@H](Cc1ccccc1)NC(=O)[C@@H](NC(=O)[C@H](CO)NC(=O)[C@H](CCCC)NC(=O)CNC(=O)[C@H](CCC(=O)O)NC(=O)C(C)(C)NC(=O)C(C)(C)NC(=O)[C@@H](NC(=O)[C@H](CCCCNC(C)=O)NC(=O)[C@H](C)NC(=O)[C@H](CCCNC(=N)N)NC(=O)[C@@H](NC(=O)[C@H](CCCCN)NC(=O)[C@H](CCC(=O)O)NC(=O)[C@H](CCCNC(=N)N)NC(=O)CNC(=O)[C@H](CCC(=O)O)NC(=O)[C@H](CC(C)C)NC(C)=O)C(C)C)[C@@H](C)CC)[C@@H](C)O)C(=O)O)C(=O)O)C(N)=O)C(=O)O)C(=O)O [compound 168] (Ac-LEGREKVRAK(Ac)I[Aib][Aib]EG[Nle]STFS[αMeK]RAK(Ac)[AEEA][AEEA][AEEA][AEEA][γGlu][γGlu]K([γGlu-γGlu-Pentadecanoyl])-NH2)
